Measured values published in US9326960B2, “Composition for preventing or treating eye diseases, containing S-allyl-L-cysteine as active ingredient, and pharmaceutical formulation containing same” (PHARMAKING CO., LTD., priority 2012, dated 2016).

How the values were obtained:
[1] = Suppressive activity against blue light-induced oxidation of A2E (cell-free, absorbance); settings: 20 μM A2E in PBS, blue light ca. 430 nm, compared to non-treated
Protocol: Assay of S-Allyl-Cysteine for Suppressive Activity Against Blue Light-Induced Oxidation of A2E S-Allyl-cysteine was assayed for the ability to suppress the blue light-induced oxidation of A2E. First, 100 μM A2E was diluted to 20 μM in phosphate buffered saline (PBS), and 200 μl of the dilution was placed in each well of 96-well plates. Then, a negative control, a positive control (lutein 20 μM), or predetermined concentrations of S-allyl-cysteine (1, 10, 100 μM) were added to the dilution, and mixed by pipetting. An LED lamp emitting blue light with a central wavelength of ca. 430 nm was operated above the microplates to induce photo-oxidation until the A2E absorbance was reduced by half. Absorbance was read on an ELISA before and after the induction of photo-oxidation. The measurements were applied to an A2E standard curve to obtain concentrations of A2E, and the difference in concentration before and after exposure to blue light was used to obtain the concentration of oxidized A2E. From the data, the inhibitory activity of the sample against A2E photo-oxidation was calculated according to the following Mathematical Formula 1. In Formula 1, Abs. means absorbance. [formula] A=Abs. of A2E−Abs. of A2E+blue light B={Abs. of A2E+sample)−Abs. of sample}−{(Abs. of A2E+sample+blue light)−(Abs. of sample−Abs. of sample+blue light)} In order to evaluate the inhibitory activity of S-allyl-L-cysteine against A2E photooxidation, concentrations of oxidized A2E were measured after exposure to blue radiation as described in Experimental Example 1, and the results are depicted in FIG. 1.

[2] = tested on: Human retinal pigment epithelial cell line (ARPE-19); experiment: Cytoprotective activity against blue light-induced apoptosis of A2E-accumulated ARPE-19 cells (MTT assay); assay type: cell-based; settings: A2E-accumulated ARPE-19 exposed to blue light; for increase of cell viability: compared to the negative control
Description: The retinal pigment cell line used in experiments and analyses of the present invention arose from a retinal pigment epithelial cell line (ARPE-19: ATCC no. CRL-2302) purchased from the ATCC (American Type Culture Collection, Manassas Va.), and was maintained by passage as described in document (Sparrow, J. R. et al., A2E, alipofuscin fluorophore, in human retinal pigmented epithelial cells in culture. Invest Ophthalmol Vis Sci 1999, 40(12), 2988-95).
Briefly, the retinal pigment cell line was cultured in Dulbecco's modified Eagle's medium (DMEM, Gibco, USA) supplemented with antibiotics (Gibco, USA) including 100 U/ml penicillin, […] streptomycin, and amphotericin B, and 10% fetal bovine serum (Hyclone, USA) at 37° C. under 5% CO2 conditions. The cells were allowed to adhere to the bottom of the culture plate, and cultured, with passage by treatment with a mixture of 1:4 trypsin:10% fetal bovine serum (Gibco, USA)-supplemented medium upon confluence.
For use in experiments, the cells were seeded at a density of 5×10^4 cells/well into 6-well plates.
Cytoprotective Activity of S-Allyl-Cysteine Against Blue Light-Induced Apoptosis of A2E-Accumulated Human Retinal Pigment Epithelial Cell Line CARPE-19)
Human retinal pigment cell line (ARPE-19) was seeded at a density of 5×10^4 cells/well into 96-well plates, and incubated with 20 μM A2E for 7 days to accumulate A2E. Then, the cells were treated with a negative control, a positive control (lutein: 20 μM), or predetermined concentrations of S-allyl-cysteine (1, 10, 100 μM) before exposure to blue light as described above.
Thereafter, cell viability was measured using 3-(4,5-dimethylthiazol-2-yl)-2,5-diphenyltetrazoliumbromide (MTT) assay. An MTT assay is a standard colorimetric assay for assessing cell viability, usually in a lab. Generally, viable cells are counted using a hemocytometer, or by measuring optical density; however, this method requires too much time and labor for large numbers of cells, and is apt to yield inaccurate results. As an alternative, the MTT assay is designed such that the yellow substrate tetrazolium MTT is reduced by metabolically active cells, in part by the action of mitochondrial dehydrogenase enzymes, into purple formazan that can be solubilized and quantified by spectrophotometric means. This assay can analyze the proliferation behavior of large numbers of cells rapidly and accurately. […] More viable cells produce a greater amount of formazan crystals, recoding higher absorbance.
According to the MTT assay (Sigma-Aldrich Inc., St. Louis, Mo., U.S.A.), DMEM containing 0.5 mg/ml MTT was added to each well and incubated at 37° C. for 2 hrs in an incubator under dark conditions. […]

SMILES	decrease of concentration of oxidized A2E ([1]; 1 μM S-allyl-cysteine) [%]	decrease of concentration of oxidized A2E ([1]; 10 μM S-allyl-cysteine) [%]	decrease of concentration of oxidized A2E ([1]; 100 μM S-allyl-cysteine) [%]	increase of cell viability ([2]; 1 μM) [%]	increase of cell viability ([2]; 10 μM) [%]	increase of cell viability ([2]; 100 μM) [%]	cell viability versus negative control (result in words) ([2]; lutein 20 μM)
C=CCSC[C@H](N)C(=O)O [S-allyl-cysteine, S-allyl-L-cysteine]	20	32	41	63	134	167	
CC1=C[C@H](O)CC(C)(C)[C@H]1/C=C/C(C)=C/C=C/C(C)=C/C=C/C=C(C)/C=C/C=C(C)/C=C/C1=C(C)C[C@@H](O)CC1(C)C [positive control, lutein, reference compound]							significant difference in cell viability
